Results: patent US7423025B2 (MUSC Foundation for Research Development, priority 2005, dated 2008)
Entries after “also recorded” stand apart in the source; their conditions may differ.

What was measured:
[1] = target: S-adenosyl-L-homocysteine hydrolase (Homo sapiens, UniProt P23526); conditions: cited from earlier work
[2] = system: mammalian nucleoside transporters; conditions: cited from earlier work
L6 myoblasts = assay: Azide-induced Pasteur effect in L6 myoblasts measured by microphysiometer; assay type: cell-based; conditions: sodium azide 5 mM, 10 min exposure, normalized to first azide exposure 30 min prior
Description: FIG. 5 is a graph showing increase of the azide-induced Pasteur effect on L6 myoblasts by L-3′-AM-MECA (2) and L-3′-ADMdA (1). Percent changes in extracellular acidification rates upon treatment of L6 cells with sodium azide (5 mM) are shown. Responses are the average for 10 min exposure and these are normalized to the increase measured for the first exposure of the same cells to azide 30 min prior. Typically the second exposure causes a diminished Pasteur effect (see control). Error bars are SEM for n=3-5. * Statistically different from negative control (IR).
The ability of increasing the azide-induced Pasteur in L6 myoblasts was measured by microphysiometer.

[3] = system: Langendorff perfused mouse heart; assay: Ischemia/reperfusion model on Langendorff perfused (isolated) mouse heart, cardioprotective activity; conditions: for maximum ischemic contracture, in words / time until onset of ischemic contracture, in words: 5 min pretreatment before 40 min ischemia; for cardiac tissue necrosis / infarction area by TTC staining, in words: 5 min pretreatment before ischemia-reperfusion; for infarction area (TTC staining, percentage of area) / maximum ischemic contracture: 5 min pretreatment; for infarction area (TTC staining, percentage of area) / maximum ischemic contracture / onset of contracture (time until onset of ischemic contracture): 40 min global ischemia; for infarction area (TTC staining, percentage of area): 60 min reperfusion, negative control 58.3±5.8%; for infarction area (TTC staining, percentage of area) / maximum ischemic contracture / onset of contracture (time until onset of ischemic contracture) / functional recovery (% rate pressure product): Mean±SEM; for maximum ischemic contracture: negative control 105.0±6.8 cmH2O; for onset of contracture (time until onset of ischemic contracture): negative control 10.5±1.0 min; for functional recovery (% rate pressure product): after 40 min ischemia and reperfusion, negative control 21.3±1.4; for functional recovery of contractility (% RPP), in words: upon reperfusion after 40 min ischemia

Sequence of S-adenosyl-L-homocysteine hydrolase (P23526 whole entry, species assumed): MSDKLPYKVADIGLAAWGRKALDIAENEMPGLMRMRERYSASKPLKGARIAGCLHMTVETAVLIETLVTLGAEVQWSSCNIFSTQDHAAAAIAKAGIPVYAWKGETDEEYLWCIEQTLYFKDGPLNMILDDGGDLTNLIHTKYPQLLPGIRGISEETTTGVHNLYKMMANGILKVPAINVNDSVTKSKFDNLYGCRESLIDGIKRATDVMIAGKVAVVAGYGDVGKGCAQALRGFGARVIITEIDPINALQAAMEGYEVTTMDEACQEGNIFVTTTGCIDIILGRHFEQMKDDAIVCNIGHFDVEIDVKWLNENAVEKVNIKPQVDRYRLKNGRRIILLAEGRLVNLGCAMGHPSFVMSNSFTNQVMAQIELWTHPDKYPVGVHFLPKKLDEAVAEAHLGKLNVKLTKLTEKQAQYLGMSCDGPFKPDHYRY

SMILES	activity on animal enzymes such as S-adenosyl-L-homocysteine hydrolase [1]	interaction with mammalian nucleoside transporters [2]	increase of azide-induced Pasteur effect (extracellular acidification rate) (L6 myoblasts)	maximum ischemic contracture, in words [3]	time until onset of ischemic contracture, in words [3]	cardiac tissue necrosis / infarction area by TTC staining, in words [3]	infarction area (TTC staining, percentage of area) [3]	maximum ischemic contracture [3]	onset of contracture (time until onset of ischemic contracture) [3]	functional recovery (% rate pressure product) [3]	cardiac standstill during treatment ([3]; during 5 min perfusion before ischemia, adenosine at 50 μM)	functional recovery of contractility (% RPP), in words [3]	functional recovery of contractility (% RPP), in words ([3]; listed as L-3′-AM-MECA)
Nc1ncnc2c1ncn2[C@H]1O[C@@H](CO)[C@H](O)[C@@H]1O [L-adenosine]	inactive	does not interact	–	–	–	–	–	–	–	–	–	–	–
CNC(=O)[C@H]1O[C@@H](n2cnc3c(N)ncnc32)[C@H](O)[C@@H]1O [MECA, reference compound]	–	–	115%	–	–	–	–	–	–	–	–	–	–
OC[C@H]1O[C@@H](n2cnc3c(NC4CCCC4)nc(Cl)nc32)[C@H](O)[C@@H]1O [CCPA, reference compound]	–	–	19%	–	–	–	–	–	–	–	–	–	–
CN(C)c1ncnc2c1ncn2[C@H]1O[C@@H](CO)[C@H](N)[C@@H]1O [Compound 1, L-3′-amino-3′-deoxy-N^6-dimethyladenosine]	–	–	136%	significant decrease of maximum ischemic contracture; also recorded: significantly decreased maximum ischemic contracture	increasing the time until onset of ischemic contracture	protective effect that is comparable or higher than adenosine; also recorded: showed decrease of cardiac tissue necrosis	39.8±5.7%	74.3±7.8 cmH2O	14.5 ± 0.9 min	32.2±3.7 cmH2O/s % rate pressure product	neither showed cardiac standstill during treatment; also recorded: neither (1) nor (2) induce cardiac standstill	significant functional recovery of contractility	–
Nc1ncnc2c1ncn2[C@@H]1O[C@H](CO)[C@@H](O)[C@H]1O [adenosine, reference compound]	–	–	–	lower maximal	delayed time until onset of ischemic contracture	significantly less evidence of necrosis	24.6±5.8%	74.1±15.6 cmH2O	13.6 ± 0.6 min	30.7±3.4 cmH2O/s % rate pressure product	–	significantly increased recovery of function	–
CNC(=O)[C@@H]1O[C@H](n2cnc3c(NC)ncnc32)[C@@H](O)[C@H]1N [Compound 2, L-3′-amino-3′-deoxy-N^6-methyladenosine-5′-N-methyluronamide]	–	–	128%	significant decrease of maximum ischemic contracture; also recorded: significantly decreased maximum ischemic contracture	does not show a significant effect; also recorded: did not significantly alter this parameter	protective effect that is comparable or higher than adenosine; also recorded: showed decrease of cardiac tissue necrosis	31.8±5.4%	87.6±6.3 cmH2O	–	–	–	did not show significant functional recovery	did not show any significant effect
